# Measured values taken from ChEMBL document CHEMBL3885861, “Open TG-GATES”.
# Species on record: Rattus norvegicus
# Experiment: Open TG-GATES - Regimen: Single
# Assay type: toxicity, organism-based, Sprague-Dawley
# Parameters: regimen Single, gender Male, age 6 weeks
# Conditions: in vivo, po, 300 mg/kg, route gavage, dose level Middle; for APTT / Bas / Eos / Fbg / Hb / Ht / Lym / MCH / MCHC / MCV / Mono / Neu / PT / Plat / RBC / Ret / WBC: tissue Blood; for KIDNEY_L / KIDNEY_R / KIDNEY_TOTAL: tissue Kidney; for LIVER: tissue Liver; for A/G / ALP / ALT / AST / BUN / CRE / Ca / Cl / DBIL / GLC / IP / K / LDH / Na / PL / RALB / TBIL / TC / TG / TP / gamma-GTP: tissue Plasma
smiles,measurement,setting,value
CC[C@@H](CO)NCCN[C@@H](CC)CO [ETHAMBUTOL],TERMINAL_BW,3 h,232.2 g
same,APTT,3 h,22.9 s
same,Bas,3 h,0%
same,Eos,3 h,0.6%
same,Fbg,3 h,301.8 mg/dL
same,Hb,3 h,13.7 g/dL
same,Ht,3 h,40.8%
same,Lym,3 h,78%
same,MCH,3 h,22 pg
same,MCHC,3 h,33.6%
same,MCV,3 h,65.5 fL
same,Mono,3 h,2.8%
same,Neu,3 h,18.2%
same,PT,3 h,15.5 s
same,Plat,3 h,120.7 x10_4/uL
same,RBC,3 h,623.8 x10_4/ul
same,Ret,3 h,8.5%
same,WBC,3 h,63.4 x10_2/uL
same,KIDNEY_L,3 h,1 g
same,KIDNEY_R,3 h,1 g
same,KIDNEY_TOTAL,3 h,2 g
same,LIVER,3 h,10.9 g
same,A/G,3 h,1.3
same,ALP,3 h,1703.4 IU/L
same,ALT,3 h,42.6 IU/L
same,AST,3 h,68.2 IU/L
same,BUN,3 h,12.2 mg/dL
same,CRE,3 h,0.1 mg/dL
same,Ca,3 h,10.3 mg/dL
same,Cl,3 h,106.8 meq/L
same,DBIL,3 h,0.002 mg/dL
same,GLC,3 h,190 mg/dL
same,IP,3 h,8.9 mg/dL
same,K,3 h,3.8 meq/L
same,LDH,3 h,187.2 IU/L
same,Na,3 h,141 meq/L
same,PL,3 h,137.4 mg/dL
same,RALB,3 h,3 g/dL
same,TBIL,3 h,0.02 mg/dL
same,TC,3 h,78.2 mg/dL
same,TG,3 h,54.2 mg/dL
same,TP,3 h,5.4 g/dL
same,gamma-GTP,3 h,1.6 IU/L
same,TERMINAL_BW,6 h,224.6 g
same,APTT,6 h,22.5 s
same,Bas,6 h,0%
same,Eos,6 h,1.2%
same,Fbg,6 h,321.2 mg/dL
same,Hb,6 h,14 g/dL
same,Ht,6 h,41%
same,Lym,6 h,75%
same,MCH,6 h,21.5 pg
same,MCHC,6 h,34.1%
same,MCV,6 h,63.1 fL
same,Mono,6 h,2.2%
same,Neu,6 h,20.6%
same,PT,6 h,15.6 s
same,Plat,6 h,124.9 x10_4/uL
same,RBC,6 h,649.8 x10_4/ul
same,Ret,6 h,7.7%
same,WBC,6 h,89.1 x10_2/uL
same,KIDNEY_L,6 h,1 g
same,KIDNEY_R,6 h,1 g
same,KIDNEY_TOTAL,6 h,2 g
same,LIVER,6 h,9.9 g
same,A/G,6 h,1.1
same,ALP,6 h,1416.2 IU/L
same,ALT,6 h,39.4 IU/L
same,AST,6 h,68.6 IU/L
same,BUN,6 h,10 mg/dL
same,CRE,6 h,0.1 mg/dL
same,Ca,6 h,10.2 mg/dL
same,Cl,6 h,106 meq/L
same,DBIL,6 h,0.002 mg/dL
same,GLC,6 h,183.6 mg/dL
same,IP,6 h,9.1 mg/dL
same,K,6 h,4.1 meq/L
same,LDH,6 h,169 IU/L
same,Na,6 h,141 meq/L
same,PL,6 h,139.8 mg/dL
same,RALB,6 h,2.9 g/dL
same,TBIL,6 h,0.022 mg/dL
same,TC,6 h,74.6 mg/dL
same,TG,6 h,76.6 mg/dL
same,TP,6 h,5.5 g/dL
same,gamma-GTP,6 h,1.8 IU/L
same,TERMINAL_BW,9 h,217.6 g
same,APTT,9 h,23 s
same,Bas,9 h,0%
same,Eos,9 h,0.6%
same,Fbg,9 h,334 mg/dL
same,Hb,9 h,13.6 g/dL
same,Ht,9 h,40.2%
same,Lym,9 h,74.4%
same,MCH,9 h,21.4 pg
same,MCHC,9 h,33.7%
same,MCV,9 h,63.5 fL
same,Mono,9 h,1.8%
same,Neu,9 h,22.2%
same,PT,9 h,16.1 s
same,Plat,9 h,122 x10_4/uL
same,RBC,9 h,633.4 x10_4/ul
same,Ret,9 h,7.8%
same,WBC,9 h,74.5 x10_2/uL
same,KIDNEY_L,9 h,1 g
same,KIDNEY_R,9 h,1 g
same,KIDNEY_TOTAL,9 h,2.1 g
same,LIVER,9 h,9.7 g
same,A/G,9 h,1.2
same,ALP,9 h,1255.8 IU/L
same,ALT,9 h,37 IU/L
same,AST,9 h,68.2 IU/L
same,BUN,9 h,9.6 mg/dL
same,CRE,9 h,0.1 mg/dL
same,Ca,9 h,10.4 mg/dL
same,Cl,9 h,107 meq/L
same,DBIL,9 h,0 mg/dL
same,GLC,9 h,176.8 mg/dL
same,IP,9 h,9.4 mg/dL
same,K,9 h,3.9 meq/L
same,LDH,9 h,139.4 IU/L
same,Na,9 h,141.6 meq/L
same,PL,9 h,136.8 mg/dL
same,RALB,9 h,3 g/dL
same,TBIL,9 h,0.036 mg/dL
same,TC,9 h,78.6 mg/dL
same,TG,9 h,53.4 mg/dL
same,TP,9 h,5.6 g/dL
same,gamma-GTP,9 h,1.8 IU/L
same,TERMINAL_BW,24 h,235.9 g
same,APTT,24 h,22 s
same,Bas,24 h,0%
same,Eos,24 h,1%
same,Fbg,24 h,339.2 mg/dL
same,Hb,24 h,13.7 g/dL
same,Ht,24 h,39.7%
same,Lym,24 h,81.6%
same,MCH,24 h,22 pg
same,MCHC,24 h,34.6%
same,MCV,24 h,63.5 fL
same,Mono,24 h,3%
same,Neu,24 h,13.2%
same,PT,24 h,15.9 s
same,Plat,24 h,117.6 x10_4/uL
same,RBC,24 h,625.8 x10_4/ul
same,Ret,24 h,7.3%
same,WBC,24 h,107.5 x10_2/uL
same,KIDNEY_L,24 h,1.1 g
same,KIDNEY_R,24 h,1.1 g
same,KIDNEY_TOTAL,24 h,2.2 g
same,LIVER,24 h,12.3 g
same,A/G,24 h,1.2
same,ALP,24 h,1520.4 IU/L
same,ALT,24 h,46 IU/L
same,AST,24 h,69.4 IU/L
same,BUN,24 h,14.6 mg/dL
same,CRE,24 h,0.1 mg/dL
same,Ca,24 h,10.5 mg/dL
same,Cl,24 h,105.2 meq/L
same,DBIL,24 h,0 mg/dL
same,GLC,24 h,187.4 mg/dL
same,IP,24 h,8.5 mg/dL
same,K,24 h,3.9 meq/L
same,LDH,24 h,145.8 IU/L
same,Na,24 h,141 meq/L
same,PL,24 h,155.6 mg/dL
same,RALB,24 h,3.1 g/dL
same,TBIL,24 h,0.014 mg/dL
same,TC,24 h,82.4 mg/dL
same,TG,24 h,89.4 mg/dL
same,TP,24 h,5.7 g/dL
same,gamma-GTP,24 h,2 IU/L
